# In PMC9474474, “Determination of pharmacokinetics and tissue distribution of a novel lutetium-labeled PSMA-targeted ligand, ^177Lu-DOTA-PSMA-GUL, in rats by using LC–MS/MS” (Scientific Reports, 2022):
# How the values were obtained:
# [1] = Excretion into urine and feces for 24 h after i.v. injection in rats; type: in vivo, Male Sprague–Dawley rats
# Description: (§1) Freshly prepared ^175Lu-DOTA-PSMA-GUL solution (2.1 mg/mL) was administered by i.v. bolus injection via the penile vein (n = 5–7) at three doses of 1, 2, and 5 mg/kg. Approximately 0.3 mL of the jugular venous blood samples were collected at predetermined times after i.v. injection. Plasma samples were harvested by centrifugation of the blood samples at 3220 × g for 10 min. Urine and feces samples were collected at 4, 8, 12, and 24 h after i.v. injection. All samples were stored at -70 °C until analysis.
# (§2) The plasma concentration–time data were analyzed by non-compartmental method using Phoenix® WinNonlin® (Pharsight, NC, USA). The fraction of ^175Lu-DOTA-PSMA-GUL excreted into urine (Furine) and feces (Ffeces) were calculated by the ratio of the total amount of drug excreted in the urine and feces to the fraction of the dose, respectively. The tissue-to-plasma partition coefficients (KP) were calculated as the tissue-to-plasma concentration ratios.
# [2] = Pharmacokinetics after i.v. bolus injection in rats (non-compartmental analysis, dose proportionality); type: in vivo, Male Sprague–Dawley rats
# Description: as §1, §2
# Dose proportionality was tested for Cmax, AUCall, and AUCinf based on power model. Assuming the natural logarithm of the pharmacokinetic parameter is linearly related to the natural logarithm of dose as in the following equation: ln(PK parameter) = β0 + β1 × ln(dose), the slope coefficient (β1) and its two-sided 95% confidence intervals (CI) were estimated.
# [3] = i.v. injection, average over doses
compound,measurement,setting,value
"O=C([O-])CN1CCN(CC(=O)[O-])CCN(CC(=O)[O-])C(Cc2ccc(NC(=S)NCCCC[C@H](NC(=O)N[C@@H](CCC(=O)O)C(=O)O)C(=O)O)cc2)CN(CC(=O)[O-])CC1.[Lu+3] (stereo partly shown) [^175Lu-DOTA-PSMA-GUL, Lutetium labeled-1,4,7,10-tetraazacyclododecane-1,4,7,10-tetraacetic acid (DOTA)-PSMA-GUL]",Ffeces (fraction excreted into feces),[1]; i.v. injection 1 mg/kg,5.46 ± 4.11%
same,Furine (fraction excreted into urine),[1]; i.v. injection 1 mg/kg,58.71 ± 21.26%
same,Ffeces (fraction excreted into feces),[1]; i.v. injection 2 mg/kg,1.08 ± 0.76%
same,Furine (fraction excreted into urine),[1]; i.v. injection 2 mg/kg,54.59 ± 25.98%
same,Ffeces (fraction excreted into feces),[1]; i.v. injection 5 mg/kg,6.41 ± 3.68%
same,Furine (fraction excreted into urine),[1]; i.v. injection 5 mg/kg,59.89 ± 22.82%
same,detection in the plasma,[2]; after 4 h of i.v. injection,not detected
same,clearance (CL),[2]; from the i.v. injection study,10.126 mL/min/kg
same,AUCall,[2]; i.v. injection 1 mg/kg,1841.19 ± 266.36 ng·h/mL
same,AUCinf,[2]; i.v. injection 1 mg/kg,1857.48 ± 270.08 ng·h/mL
same,C0,[2]; i.v. injection 1 mg/kg,9267.42 ± 2673.59 ng/mL
same,CL,[2]; i.v. injection 1 mg/kg,9.13 ± 1.30 mL/min/kg
same,MRT,[2]; i.v. injection 1 mg/kg,20.4 ± 1.2 min
same,VSS,[2]; i.v. injection 1 mg/kg,0.19 ± 0.03 L/kg
same,Vz,[2]; i.v. injection 1 mg/kg,0.25 ± 0.03 L/kg
same,t1/2,[2]; i.v. injection 1 mg/kg,19.2 ± 1.2 min
same,AUCall,[2]; i.v. injection 2 mg/kg,3029.00 ± 350.80 ng·h/mL
same,AUCinf,[2]; i.v. injection 2 mg/kg,3047.45 ± 346.00 ng·h/mL
same,C0,[2]; i.v. injection 2 mg/kg,"14,960.22 ± 3104.40 ng/mL"
same,CL,[2]; i.v. injection 2 mg/kg,11.04 ± 1.15 mL/min/kg
same,MRT,[2]; i.v. injection 2 mg/kg,19.2 ± 1.8 min
same,VSS,[2]; i.v. injection 2 mg/kg,0.21 ± 0.04 L/kg
same,Vz,[2]; i.v. injection 2 mg/kg,0.29 ± 0.05 L/kg
same,t1/2,[2]; i.v. injection 2 mg/kg,18 ± 1.8 min
same,AUCall,[2]; i.v. injection 5 mg/kg,8038.10 ± 1055.28 ng·h/mL
same,AUCinf,[2]; i.v. injection 5 mg/kg,8076.44 ± 1063.99 ng·h/mL
same,C0,[2]; i.v. injection 5 mg/kg,"46,720.92 ± 13,829.91 ng/mL"
same,CL,[2]; i.v. injection 5 mg/kg,10.46 ± 1.30 mL/min/kg
same,MRT,[2]; i.v. injection 5 mg/kg,19.2 ± 1.2 min
same,VSS,[2]; i.v. injection 5 mg/kg,0.20 ± 0.03 L/kg
same,Vz,[2]; i.v. injection 5 mg/kg,0.30 ± 0.09 L/kg
same,t1/2,[2]; i.v. injection 5 mg/kg,19.8 ± 5.4 min
same,average CL,[2]; [3],10.13 mL/min/kg
same,average volume of distribution (Vss),[2]; [3],0.20 L/kg
